Columns and labels:
Format in all cases: cell-based
[1] = system: K562; assay: Inhibition of tumor cell proliferation, CellTiter-Glo, K562; conditions: compound concentration 50 μM, 72 hours; for cell survival rate (%) at 50 µM: Homo sapiens, K562, read-out: Inhibitory activity against proliferation (cell survival rate) K562
Procedure: (§1) For various cell lines, the corresponding complete medium was used, and culture was carried out in an incubator at 37° C. with 5% CO2. The cells were counted, and inoculated into a 96-well plate at 2000-10000 cells/100 μl per well according to the cell volume and growth rate. The suspended cells were treated immediately, and the adherent cells were treated after adherence. The CellTiter-Glo method was used to detect the changes in cell viability 72 hours after the administration, and the cell survival rate at different concentrations was calculated by a formula: Survival rate (%)=(RLU of treatment well−RLU of blank well)/(RLU of control well−RLU of blank well)×100.
(§2) Method for expressing the inhibitory activity of the compounds against the proliferation of tumor cells: Evaluation was made based on the cell survival rate at a compound concentration of 50 μM. 60≤survival rate (%)<90 is considered to have low inhibitory activity against the proliferation of tumor cells (+); 30<survival rate (%)≤60 is considered to have moderate inhibitory activity against the proliferation of tumor cells (++); and survival rate (%)≤30 is considered to have high inhibitory activity against the proliferation of tumor cells (+++).

[2] = system: SU-DHL6; assay: Inhibition of tumor cell proliferation, CellTiter-Glo, SU-DHL6; conditions: compound concentration 50 μM, 72 hours; for cell survival rate (% of control) at 50 µM: Homo sapiens, SU-DHL-6, read-out: Inhibitory activity against proliferation (cell survival rate) SU-DHL6
Procedure: as §1, §2

[3] = system: BxPC-3; assay: Inhibition of tumor cell proliferation, CellTiter-Glo, BxPC-3; conditions: compound concentration 50 μM, 72 hours; for cell survival rate (%) at 50 µM: Homo sapiens, BXPC-3, read-out: Inhibitory activity against proliferation (cell survival rate) BxPC-3
Procedure: as §1, §2

[4] = system: A549; assay: Inhibition of tumor cell proliferation, CellTiter-Glo, A549; conditions: compound concentration 50 μM, 72 hours; for cell survival rate (% of control) at 50 µM: Homo sapiens, A549, read-out: Inhibitory activity against proliferation (cell survival rate) A549
Procedure: as §1, §2

[5] = system: RPMI-8226; assay: Inhibition of tumor cell proliferation, CellTiter-Glo, RPMI-8226; conditions: compound concentration 50 μM, 72 hours; for cell survival rate (% of control) at 50 µM: Homo sapiens, RPMI-8226, read-out: Inhibitory activity against proliferation (cell survival rate) RPMI-8226
Procedure: as §1, §2

[6] = system: MDA-MB-453; assay: Inhibition of tumor cell proliferation, CellTiter-Glo, MDA-MB-453; conditions: compound concentration 50 μM, 72 hours; for cell survival rate (%) at 50 µM: Homo sapiens, MDA-MB-453, read-out: Inhibitory activity against proliferation (cell survival rate) MDA-MB-453
Procedure: as §1, §2

Structure (SMILES)	cell survival rate (%) at 50 µM [1]	cell survival rate (% of control) at 50 µM [2]	cell survival rate (%) at 50 µM [3]	cell survival rate (% of control) at 50 µM [4]	cell survival rate (% of control) at 50 µM [5]	cell survival rate (%) at 50 µM [6]	Inhibitory activity against proliferation (cell survival rate) K562 [1]	Inhibitory activity against proliferation (cell survival rate) SU-DHL6 [2]	Inhibitory activity against proliferation (cell survival rate) BxPC-3 [3]	Inhibitory activity against proliferation (cell survival rate) A549 [4]	Inhibitory activity against proliferation (cell survival rate) RPMI-8226 [5]	Inhibitory activity against proliferation (cell survival rate) MDA-MB-453 [6]
O=C1CCC(N2Cc3c(N/C=C4\C(=O)Nc5c(ccc6ccccc56)C4=O)cccc3C2=O)C(=O)N1 (stereo not drawn) [Compound 138]	30 to 60%	≤ 30%	60 to 90%	≤ 30%	30 to 60%	≤ 30%	–	–	–	–	–	–
Nc1cccc2c1CN(C1CCC(=O)N(C(=O)N3CCN(CCNC=C4C(=O)CC(c5ccccc5)CC4=O)CC3)C1=O)C2=O (stereo not drawn) [Compound 100]	–	–	–	–	–	–	+++ (survival rate (%)≤30)	++ (30<survival rate (%)≤60)	++ (30<survival rate (%)≤60)	+++ (survival rate (%)≤30)	+ (60≤survival rate (%)<90)	++ (30<survival rate (%)≤60)
O=C1CCC(N2C(=O)c3cccc(NS(=O)(=O)N4CCN(CCNC=C5C(=O)CC(c6ccccc6)CC5=O)CC4)c3C2=O)C(=O)N1 (stereo not drawn) [Compound 71]	–	–	–	–	–	–	+++ (survival rate (%)≤30)	+++ (survival rate (%)≤30)	+ (60≤survival rate (%)<90)	+++ (survival rate (%)≤30)	+++ (survival rate (%)≤30)	+++ (survival rate (%)≤30)
O=C1CCC(N2Cc3c(NC(=O)OCCOCCN4CCN(CCNC=C5C(=O)CC(c6ccccc6)CC5=O)CC4)cccc3C2=O)C(=O)N1 (stereo not drawn) [Compound 87]	–	–	–	–	–	–	++ (30<survival rate (%)≤60)	+++ (survival rate (%)≤30)	+ (60≤survival rate (%)<90)	++ (30<survival rate (%)≤60)	+++ (survival rate (%)≤30)	+++ (survival rate (%)≤30)
O=C1CCC(N2C(=O)c3cccc(OCCOCCOCCOCCN4CCN(CCNC=C5C(=O)CC(c6ccccc6)CC5=O)CC4)c3C2=O)C(=O)N1 (stereo not drawn) [Compound 125]	–	–	–	–	–	–	+ (60≤survival rate (%)<90)	+++ (survival rate (%)≤30)	++ (30<survival rate (%)≤60)	+ (60≤survival rate (%)<90)	+++ (survival rate (%)≤30)	+++ (survival rate (%)≤30)
O=C1CCC(N2Cc3c(NC(=O)CN4CCN(CCNC=C5C(=O)CC(c6ccccc6)CC5=O)CC4)cccc3C2=O)C(=O)N1 (stereo not drawn) [Compound 54]	–	–	–	–	–	–	+++ (survival rate (%)≤30)	+++ (survival rate (%)≤30)	+ (60≤survival rate (%)<90)	+++ (survival rate (%)≤30)	++ (30<survival rate (%)≤60)	++ (30<survival rate (%)≤60)
O=C1CCC(N2Cc3c(NC(=O)OCOC(=O)C=CC(=O)N4CCN(CCNC=C5C(=O)CC(c6ccccc6)CC5=O)CC4)cccc3C2=O)C(=O)N1 (stereo not drawn) [Compound 85]	–	–	–	–	–	–	++ (30<survival rate (%)≤60)	+ (60≤survival rate (%)<90)	+ (60≤survival rate (%)<90)	++ (30<survival rate (%)≤60)	+++ (survival rate (%)≤30)	+ (60≤survival rate (%)<90)
O=C1CCC(N2Cc3c(NC(=O)OCc4cnc(NC=C5C(=O)CC(c6ccccc6)CC5=O)s4)cccc3C2=O)C(=O)N1 (stereo not drawn) [Compound 84]	–	–	–	–	–	–	+++ (survival rate (%)≤30)	+++ (survival rate (%)≤30)	+ (60≤survival rate (%)<90)	+ (60≤survival rate (%)<90)	+++ (survival rate (%)≤30)	+++ (survival rate (%)≤30)
O=C1CCC(N2Cc3c(NC=C4C(=O)CC(c5ccccc5C(F)(F)F)CC4=O)cccc3C2=O)C(=O)N1 (stereo not drawn) [Compound 23]	–	–	–	–	–	–	++ (30<survival rate (%)≤60)	+++ (survival rate (%)≤30)	++ (30<survival rate (%)≤60)	+++ (survival rate (%)≤30)	+++ (survival rate (%)≤30)	++ (30<survival rate (%)≤60)
O=C1CCC(N2Cc3cc(NC=C4C(=O)CC(c5ccccc5)CC4=O)ccc3C2=O)C(=O)N1 (stereo not drawn) [Compound 8]	–	–	–	–	–	–	++ (30<survival rate (%)≤60)	+ (60≤survival rate (%)<90)	++ (30<survival rate (%)≤60)	++ (30<survival rate (%)≤60)	++ (30<survival rate (%)≤60)	+ (60≤survival rate (%)<90)
O=C1CCC(N2Cc3c(NC(=O)OCCN4CCN(CCNC=C5C(=O)CC(c6ccccc6)CC5=O)CC4)cccc3C2=O)C(=O)N1 (stereo not drawn) [Compound 79]	–	–	–	–	–	–	+ (60≤survival rate (%)<90)	+ (60≤survival rate (%)<90)	++ (30<survival rate (%)≤60)	+ (60≤survival rate (%)<90)	+++ (survival rate (%)≤30)	++ (30<survival rate (%)≤60)
Cc1ccccc1C1CC(=O)C(=CNc2cccc3c2CN(C2CCC(=O)NC2=O)C3=O)C(=O)C1 (stereo not drawn) [Compound 4]	–	–	–	–	–	–	++ (30<survival rate (%)≤60)	+ (60≤survival rate (%)<90)	+ (60≤survival rate (%)<90)	+ (60≤survival rate (%)<90)	+++ (survival rate (%)≤30)	+ (60≤survival rate (%)<90)
O=C1CCC(N2Cc3c(NC(=O)OCc4ccc(NC=C5C(=O)CC(c6ccccc6)CC5=O)nc4)cccc3C2=O)C(=O)N1 (stereo not drawn) [Compound 82]	60 to 90%	≤ 30%	60 to 90%	≤ 30%	60 to 90%	30 to 60%	–	–	–	–	–	–
COCCOCCOc1ccccc1C1CC(=O)C(=CNc2cccc3c2CN(C2CCC(=O)NC2=O)C3=O)C(=O)C1 (stereo not drawn) [Compound 110]	–	–	–	–	–	–	++ (30<survival rate (%)≤60)	+ (60≤survival rate (%)<90)	++ (30<survival rate (%)≤60)	++ (30<survival rate (%)≤60)	++ (30<survival rate (%)≤60)	+ (60≤survival rate (%)<90)
O=C1CCC(N2Cc3c(NC=C4C(=O)CN(c5ccccc5)CC4=O)cccc3C2=O)C(=O)N1 (stereo not drawn) [Compound 119]	30 to 60%	30 to 60%	30 to 60%	60 to 90%	30 to 60%	30 to 60%	–	–	–	–	–	–
O=C1CCC(N2Cc3c(NS(=O)(=O)N4CCN(CCNC=C5C(=O)CC(c6ccccc6)CC5=O)CC4)cccc3C2=O)C(=O)N1 (stereo not drawn) [Compound 72]	–	–	–	–	–	–	+++ (survival rate (%)≤30)	+++ (survival rate (%)≤30)	+ (60≤survival rate (%)<90)	+ (60≤survival rate (%)<90)	+ (60≤survival rate (%)<90)	+ (60≤survival rate (%)<90)

From patent US11021457B2, “Class of isoindolone-imide ring-1,3-dione-2-ene compounds, composition and use thereof” (WIGEN BIOMEDICINE TECHNOLOGY (SHANGHAI) CO., LTD., priority 2017, dated 2021)
